Data published in ChEMBL document CHEMBL1857833, “Screening and optimization of specific chemical series against human African Trypanosomiasis (HAT)”.
Converted amounts (≈) assume the structure as drawn. “And” between values parts separate entries of the source, which are not always exact repeats. Identical values can stand only once.

Key:
[1] = DNDI: Cytotoxicity against L929 mouse fibroblasts, CYTO-SP, 24 hour; type: toxicity, cell-based; conditions: mouse, L929 mouse fibroblasts
Trypanosoma brucei = test: DNDI: Inhibition of Human African Trypanosomiasis, SBRI 427, in vitro; type: functional, organism-based
[2] = Trypanosoma brucei, SBRI 427, read-out: IC50

Row | SMILES | IC50 at 24 h [1] [µg/mL] | IC50 (Trypanosoma brucei; [2]) [µg/mL] | IC50 (Trypanosoma brucei)
1 | N#Cc1cccnc1Oc1ccccc1 | > 50 | > 5 | –
2 | Fc1ccccc1Oc1ncccc1CNC1CCCCC1 | > 50 | > 5 | –
3 | N#Cc1cccnc1Oc1ccccc1Br | > 50 | > 5 | –
4 | C[C@@H]1[C@H]2C[C@@H](C[C@H]1N/C(=N\O)c1ccccc1-c1ccccc1)C2(C)C | 17 (≈ 48.8 µM) | 5 (≈ 14.3 µM) | –
5 | O/N=C(/c1ccccc1-c1ccccc1)n1ccnc1 | > 50 | > 5 | –
6 | Cc1ccc(-c2nc(CNC[C@@H]3CC[C@H]4C[C@@H]3C4(C)C)co2)cc1 | 28.4 (≈ 87.5 µM) | – | 0.93 µg/mL and 2.49 µg/mL
7 | CCOc1ccccc1CN/C(=N\O)c1cccnc1Oc1ccc(C(C)C)cc1 | 38.6 (≈ 95.1 µM) | 1.12 (≈ 2.76 µM) | –
8 | CCc1ccccc1Oc1ncccc1/C(N)=N\O | > 5 | > 5 | –
9 | O/N=C(\NC1CCCC1)c1ccc(Oc2cc(Cl)ccc2Cl)nc1 | 28.8 (≈ 78.6 µM) | 1.08 (≈ 2.95 µM) | –
10 | CSc1ccccc1Oc1ncccc1C#N | > 50 | > 5 | –
11 | COc1cc(C)ccc1Oc1nc(C)ccc1/C(=N/O)NCc1cc(F)cc(F)c1 | > 50 | 1.02 (≈ 2.47 µM) | –
12 | N/C(=N/O)c1cccnc1Oc1ccc2ccccc2c1 | > 50 | > 5 | –
13 | CCc1ccc(Oc2ncccc2/C(=N/O)NCc2ccccc2C)cc1 | > 50 | 1.07 (≈ 2.96 µM) | –
14 | Cc1ccccc1CN/C(=N\O)c1cccnc1Oc1ccc(C(C)C)cc1 | 44.9 (≈ 120 µM) | 1.06 (≈ 2.82 µM) | –
15 | COc1ccc(/C=N/Oc2ccccc2)cc1 | > 50 | > 5 | –
16 | N/C(=N/O)c1cccnc1Oc1cccc2ccccc12 | > 50 | > 5 | –
17 | Cc1ccc(Oc2ncccc2/C(=N/O)NC2CCC(C)CC2)c2c1CCC2 (stereo not given) | 32.5 (≈ 85.5 µM) | 0.81 (≈ 2.13 µM) | –
18 | O/N=C(\NCC1CCCCC1)c1cccnc1Oc1ccc(Cl)cc1 | > 50 | 0.92 (≈ 2.56 µM) | –
19 | Cc1ccc(Oc2ncccc2/C(=N/O)NCc2cccs2)c2c1CCC2 | > 50 | 1.09 (≈ 2.87 µM) | –
20 | O/N=C(\NC1CCCCC1)c1ccnc(Oc2cccc3c2CCCC3)c1 | 48.4 (≈ 132 µM) | 0.83 (≈ 2.27 µM) | –
21 | O/N=C(\NC1CCC1)c1cccnc1OCC1CCCCC1 | > 50 | 0.64 (≈ 2.11 µM) | –
22 | CCOc1ccccc1CN/C(=N\O)c1cccnc1Oc1ccc(CC)cc1 | > 50 | 0.76 (≈ 1.94 µM) | –
23 | CC(C)(C)CN/C(=N\O)c1cccnc1Oc1ccc(Cl)cc1 | > 50 | 0.58 (≈ 1.74 µM) | –

Row | SMILES | IC50 at 24 h [1] [µg/mL] | IC50 (Trypanosoma brucei; [2]) [µg/mL] | IC50 (Trypanosoma brucei)
24 | COc1ccc(Oc2ncccc2/C(=N/O)NCC(C)(C)C)cc1 | > 50 | 0.18 (≈ 0.546 µM) | –
25 | N#Cc1cccnc1Oc1ccc2ccccc2c1 | > 50 | > 5 | –
26 | COc1cc(C)ccc1Oc1nc(C)ccc1/C(=N/O)NCc1cc(C)cc(C)c1 | > 50 | 1.1 (≈ 2.71 µM) | –
27 | Cc1ccc(Oc2ncccc2/C(=N/O)NCC2CC2)c2c1CCC2 | > 50 | 0.21 (≈ 0.622 µM) | –
28 | C=CCO/N=C/c1ccc(OC)cc1 | > 50 | > 5 | –
29 | COc1ccccc1Oc1ncccc1C(=O)NC1CCCCC1 | > 50 | > 5 | –
30 | CCC(CC)N/C(=N\O)c1cccnc1OCC1CCCCC1 | 33.5 (≈ 105 µM) | 0.44 (≈ 1.38 µM) | –
31 | CCC(CC)N/C(=N\O)c1cccnc1Oc1ccc(OC)cc1 | > 50 | 0.78 (≈ 2.37 µM) | –
32 | Clc1ccc(-c2nc(CNCCCN3CCCC3)co2)c(Cl)c1 | 33.6 (≈ 94.8 µM) | – | 0.62 µg/mL and 1.33 µg/mL
33 | Cc1ccccc1CN/C(=N\O)c1cccnc1Oc1c(F)cccc1F | > 50 | 1.02 (≈ 2.76 µM) | –
34 | CCC(C)(C)N/C(=N\O)c1cccnc1Oc1ccc2ccccc2c1 | > 50 | 0.49 (≈ 1.4 µM) | –
35 | N/C(=N/O)c1cccnc1Oc1ccccc1 | > 50 | > 5 | –
36 | COc1ccc(Oc2ncccc2/C(=N/O)NC2CCCC2)cc1 | > 50 | 0.15 (≈ 0.458 µM) | –
37 | O/N=C(\NC1CCC1)c1cccnc1Oc1ccc2c(c1)CCCC2 | > 50 | 0.19 (≈ 0.563 µM) | –
38 | O/N=C(/c1cccnc1Oc1ccc2ccccc2c1)N1CCC2CCCCC2C1 (stereo not given) | > 50 | 0.13 (≈ 0.324 µM) | –
39 | CCc1ccccc1Oc1ncccc1C#N | > 50 | > 5 | –
40 | N#Cc1cccnc1Oc1cccc2ccccc12 | > 50 | > 5 | –
41 | CCc1ccc(Oc2ncccc2/C(=N/O)NCc2ccccc2OC)cc1 | > 50 | 1.08 (≈ 2.86 µM) | –
42 | CC1CC(N/C(=N\O)c2cccnc2Oc2ccc(C(C)C)cc2)CC(C)(C)C1 (stereo not given) | 21.9 (≈ 55.4 µM) | 0.54 (≈ 1.37 µM) | –
43 | Cc1ccc(Oc2ncccc2/C(=N/O)NCC(C)C)c2c1CCC2 | > 50 | 0.55 (≈ 1.62 µM) | –
44 | CC1CCC(N/C(=N\O)c2cccnc2Oc2ccccc2OC(C)C)CC1 (stereo not given) | > 50 | 0.55 (≈ 1.43 µM) | –
45 | Cc1ccc2cccc(Oc3ccc(/C(=N/O)NC4CCCCC4)cn3)c2n1 | > 50 | 1.08 (≈ 2.87 µM) | –
